Data published in ChEMBL document CHEMBL2074228, “Cloning and functional characterization of a potential-sensitive, polyspecific organic cation transporter (OCT3) most abundantly expressed in placenta” (J Biol Chem, 1998).
Where “and” joins values, the source holds several entries; their conditions need not be identical. Equal values may be shown once.

Columns and labels:
[1] = biological target: T1, OCT3 (Solute carrier family 22 member 3) (Rattus norvegicus, UniProt O88446); assay: TP_TRANSPORTER: inhibition of Guanidine uptake (Guanidine: 35 uM, NMN: 5000 uM) in OCT3-expressing HeLa cells; type: functional, cell-based; set-up: scale not given: the % may be the effect or the level left; conditions: human, probe guanidine (35 uM), read-out: Activity
T1 sequence (O88446 whole entry): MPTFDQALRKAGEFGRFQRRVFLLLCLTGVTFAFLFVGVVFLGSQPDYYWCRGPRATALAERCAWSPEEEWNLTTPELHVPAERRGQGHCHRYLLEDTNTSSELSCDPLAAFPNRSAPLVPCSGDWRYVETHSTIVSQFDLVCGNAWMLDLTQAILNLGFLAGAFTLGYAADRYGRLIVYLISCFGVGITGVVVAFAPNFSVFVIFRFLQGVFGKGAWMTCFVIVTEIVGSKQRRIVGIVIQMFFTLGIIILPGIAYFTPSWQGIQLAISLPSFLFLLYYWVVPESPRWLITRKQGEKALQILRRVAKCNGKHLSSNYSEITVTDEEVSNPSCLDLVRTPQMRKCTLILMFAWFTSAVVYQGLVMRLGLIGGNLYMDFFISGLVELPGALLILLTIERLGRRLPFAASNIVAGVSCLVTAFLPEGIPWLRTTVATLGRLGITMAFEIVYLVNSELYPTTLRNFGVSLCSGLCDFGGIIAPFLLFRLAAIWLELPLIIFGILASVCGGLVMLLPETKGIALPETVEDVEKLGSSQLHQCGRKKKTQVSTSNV

[2] = biological target: T2, Solute carrier family 22 member 3 (Rattus norvegicus, UniProt O88446); assay: TP_TRANSPORTER: uptake in OCT3-expressing HeLa cells; type: functional, cell-based; conditions: human
T2 sequence (O88446 whole entry): T1 sequence (O88446 whole entry)

[3] = biological target: T2, Solute carrier family 22 member 3; assay: TP_TRANSPORTER: uptake in Xenopus laevis oocytes; type: functional, cell-based; conditions: oocyte
[4] = biological target: T1, OCT3 (Solute carrier family 22 member 3); assay: TP_TRANSPORTER: inhibition of Guanidine uptake (Guanidine: 35 uM, Desipramine: 5000 uM) in OCT3-expressing HeLa cells; type: functional, cell-based; set-up: scale not given: the % may be the effect or the level left; conditions: human, probe guanidine (35 uM), read-out: Activity
[5] = biological target: T1, OCT3 (Solute carrier family 22 member 3); assay: in vitro; conditions: human, OCT3-expressing HeLa cells, probe guanidine (35 uM)
Description: TP_TRANSPORTER: inhibition of Guanidine uptake (Guanidine: 35 uM, TEA: 5000 uM) in OCT3-expressing HeLa cells

[6] = biological target: T1, OCT3 (Solute carrier family 22 member 3); assay: TP_TRANSPORTER: inhibition of Guanidine uptake (Guanidine: 35 uM, MPP+: 5000 uM) in OCT3-expressing HeLa cells; type: functional, cell-based; set-up: scale not given: the % may be the effect or the level left; conditions: human, probe guanidine (35 uM), read-out: Activity
[7] = biological target: T1, OCT3 (Solute carrier family 22 member 3); assay: TP_TRANSPORTER: inhibition of Guanidine uptake (Guanidine: 35 uM, Serotonin: 5000 uM) in OCT3-expressing HeLa cells; type: functional, cell-based; set-up: scale not given: the % may be the effect or the level left; conditions: human, probe guanidine (35 uM), read-out: Activity
[8] = biological target: T1, OCT3 (Solute carrier family 22 member 3); assay: TP_TRANSPORTER: inhibition of Guanidine uptake (Guanidine: 35 uM, MPTP: 5000 uM) in OCT3-expressing HeLa cells; type: functional, cell-based; set-up: scale not given: the % may be the effect or the level left; conditions: human, probe guanidine (35 uM), read-out: Activity
[9] = biological target: T1, OCT3 (Solute carrier family 22 member 3); assay: TP_TRANSPORTER: inhibition of Guanidine uptake (Guanidine: 35 uM, TMA: 5000 uM) in OCT3-expressing HeLa cells; type: functional, cell-based; set-up: scale not given: the % may be the effect or the level left; conditions: human, probe guanidine (35 uM), read-out: Activity
[10] = biological target: T1, OCT3 (Solute carrier family 22 member 3); assay: in vitro; conditions: human, OCT3-expressing HeLa cells, probe guanidine (35 uM); remark: listed apart in the source
[11] = substrate: CC[N+](CC)(CC)CC; assay: cells, lysate or membranes named

CNC(=O)c1cccnc1 [NICOTINYL METHYLAMIDE]
activity at 5000 µM [1]: 33%

N=C(N)N [GUANIDINE]
Activity [2]: substrate [+]
Activity [3]: substrate [+]

CNCCCN1c2ccccc2CCc2ccccc21 [DESIPRAMINE]
activity at 5000 µM [4]: 1%

CC[N+](CC)(CC)CC [TETRYLAMMONIUM]
activity at 5000 µM [5]: 41%

C[n+]1ccc(-c2ccccc2)cc1
activity at 5000 µM [6]: 22%

NCCc1c[nH]c2ccc(O)cc12 [SEROTONIN]
activity at 5000 µM [7]: 30%

CN1CC=C(c2ccccc2)CC1
activity at 5000 µM [8]: 14%

C[N+](C)(C)C [TETRAMETHYLAMMONIUM]
activity at 5000 µM [9]: 59%

CN1CCC[C@H]1c1cccnc1 [NICOTINE]
activity at 5000 µM [10]: 52%

B1: Solute carrier family 22 member 3 (Rattus norvegicus) (protein)
chain: T1 sequence (O88446 whole entry)
Km [11]: 2.5 mM and 6.2 mM
